Where two headings read alike, the source gives them in different places. *1 amine or outer side, *2 acyl side, *3 side chain or, on linkers, in order; H or OH if unused. Where a SMILES comes first, the peptide text is derived from it. [ ]: non-standard residue; d: D form. The star is where a group is joined. Pro(trans-4-NH2) = O=C([C@@H]1C[C@@H](N[*:3])CN1[*:1])[*:2]; X2 = CC(=O)NC1C(OCCn2cc(CCC(=O)*)nn2)OC(CO)C(O)C1O; X1 = O=C(CCCn1cc(CN[*:1])nn1)[*:2]
Biological target: SBA (soybean agglutinin) (Glycine max, UniProt P05046)
Sequence (P05046 33-285): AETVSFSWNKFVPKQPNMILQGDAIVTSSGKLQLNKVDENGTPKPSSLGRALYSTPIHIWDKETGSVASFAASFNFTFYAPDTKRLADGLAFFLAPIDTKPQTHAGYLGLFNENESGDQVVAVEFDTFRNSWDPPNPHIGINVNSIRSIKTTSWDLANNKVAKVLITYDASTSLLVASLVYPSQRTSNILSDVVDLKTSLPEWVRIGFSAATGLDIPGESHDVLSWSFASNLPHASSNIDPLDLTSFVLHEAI
Test: Surface plasmon resonance (SPR) binding to immobilized SBA
Method: Assay: surface plasmon resonance (SPR) experiments were performed on the Biacore T200 at 25° C. using a functionalized CM5 sensor chip. Protein immobilization was performed according to the instrument build-in wizard template. The CM5 sensor chip was activated with a solution containing N-ethyl-N′-(3-[…])-carbodiimide (EDC) (0.2 M) and N-hydroxysuccinimide (NHS) (0.05 M). HPA (10 μg/mL) in NaOAc buffer (pH 6) or SBA (10 μg/mL) in NaOAc buffer (pH 4) was injected over the activated flow cell at flow rate of 10 μL/min for 420 s. Then 1 M ethanolamine at pH 8.5 was injected to block the remaining activated groups. Binding assays were performed with HBS-P+(10 mM HEPES, 150 mM NaCI, 0.05% tween 20, pH 7.4) for HPA or 10 mM HEPES, 150 mM NaCl, 0.05% tween 20, and 100 μM CaCl2, 0.05% tween 20, pH 7.5 for SBA as running buffer. Protein modulator for test (COM1, SL4, SL5 and SL6) were injected onto the surface, with several concentrations of ranging from 6.25 nM to 100 nM for protein modulator COM1 and 10 nM to 160 nM for protein modulators SL4, SL5 and SL6 to HPA or from 62.5 nM to 1000 nM for protein modulator COM1 and 100 nM to 1600 nM for protein modulators SL4, SL5 and SL6 to SBA at the rate of 30 μL/min diluted in the running buffer. The surface was regenerated by 30 s injection of 300 mM GlcNAc for HPA or 100 mM methyl β-D-galactopyranoside for LecA. The sensorgrams were reference subtracted, quality controlled and analyzed by Biacore T200 Evaluation Software, and the kinetic parameters were obtained by fitting curves to 1:1 Langmuir model.

SMILES | Kd | Kd (SPR, Biacore T200, 25° C., SBA immobilized on CM5 chip, HEPES buffer with 100 μM CaCl2 pH 7.5, 1:1 Langmuir model, read-out: KD(nM) SBA)
CC(=O)NC1C(OCCn2cc(CCC(=O)N[C@@H]3C[C@H]4C(=O)N5CCC[C@H]5C(=O)N5CCC[C@H]5C(=O)N5CCC[C@H]5C(=O)N5CCC[C@H]5C(=O)N5CCC[C@H]5C(=O)N5CCC[C@H]5C(=O)N5CCC[C@H]5C(=O)N5CCC[C@H]5C(=O)NCc5cn(nn5)CCCC(=O)N5CCC[C@H]5C(=O)N5CCC[C@H]5C(=O)N5CCC[C@H]5C(=O)N5CCC[C@H]5C(=O)N5CCC[C@H]5C(=O)N5CCC[C@H]5C(=O)N5CCC[C@H]5C(=O)N5CCC[C@H]5C(=O)N5CCC[C@H]5C(=O)NCc5cn(nn5)CCCC(=O)N5C[C@H](NC(=O)CCc6cn(CCOC7OC(CO)C(O)C(O)C7NC(C)=O)nn6)C[C@H]5C(=O)N5CCC[C@H]5C(=O)N5CCC[C@H]5C(=O)N5CCC[C@H]5C(=O)N5CCC[C@H]5C(=O)N5CCC[C@H]5C(=O)N5C[C@H](NC(=O)CCc6cn(CCOC7OC(CO)C(O)C(O)C7NC(C)=O)nn6)C[C@H]5C(=O)N5CCC[C@H]5C(=O)N5CCC[C@H]5C(=O)NCc5cn(nn5)CCCC(=O)N4C3)nn2)OC(CO)C(O)C1O (stereo partly drawn) [SL5] (cyclo(PPPPPPPPP[X1][Pro(trans-4-NH2)](X2)PPPPP[Pro(trans-4-NH2)](X2)PP[X1][Pro(trans-4-NH2)](X2)PPPPPPPP[X1])) | 138 nM | 
CC(=O)NC1C(OCCn2cc(CCC(=O)N[C@@H]3C[C@H]4C(=O)N5CCC[C@H]5C(=O)N5CCC[C@H]5C(=O)N5C[C@H](NC(=O)CCc6cn(CCOC7OC(CO)C(O)C(O)C7NC(C)=O)nn6)C[C@H]5C(=O)N5CCC[C@H]5C(=O)N5CCC[C@H]5C(=O)N5C[C@H](NC(=O)CCc6cn(CCOC7OC(CO)C(O)C(O)C7NC(C)=O)nn6)C[C@H]5C(=O)N5CCC[C@H]5C(=O)N5CCC[C@H]5C(=O)NCc5cn(nn5)CCCC(=O)N5CCC[C@H]5C(=O)N5CCC[C@H]5C(=O)N5CCC[C@H]5C(=O)N5CCC[C@H]5C(=O)N5CCC[C@H]5C(=O)N5CCC[C@H]5C(=O)N5CCC[C@H]5C(=O)N5CCC[C@H]5C(=O)N5CCC[C@H]5C(=O)NCc5cn(nn5)CCCC(=O)N5CCC[C@H]5C(=O)N5CCC[C@H]5C(=O)N5CCC[C@H]5C(=O)N5CCC[C@H]5C(=O)N5CCC[C@H]5C(=O)N5CCC[C@H]5C(=O)N5CCC[C@H]5C(=O)N5CCC[C@H]5C(=O)N5CCC[C@H]5C(=O)NCc5cn(nn5)CCCC(=O)N4C3)nn2)OC(CO)C(O)C1O (stereo partly drawn) [SL6] (cyclo(PPPPPPPPP[X1]PPPPPPPPP[X1][Pro(trans-4-NH2)](X2)PP[Pro(trans-4-NH2)](X2)PP[Pro(trans-4-NH2)](X2)PP[X1])) | 255 nM | 
CC(=O)NC1C(OCCn2cc(CNC(=O)CCOCC(COCCC(=O)NCc3cn(CCOC4OC(CO)C(O)C(O)C4NC(C)=O)nn3)(COCCC(=O)NCc3cn(CCOC4OC(CO)C(O)C(O)C4NC(C)=O)nn3)NC(=O)COCCOCCN)nn2)OC(CO)C(O)C1O (stereo not shown) [COM1, reference compound] |  | 61.2 nM
CC(=O)NC1C(OCCn2cc(CCC(=O)N[C@@H]3C[C@H]4C(=O)N5CCC[C@H]5C(=O)N5CCC[C@H]5C(=O)N5CCC[C@H]5C(=O)N5CCC[C@H]5C(=O)N5CCC[C@H]5C(=O)N5CCC[C@H]5C(=O)N5CCC[C@H]5C(=O)N5CCC[C@H]5C(=O)NCc5cn(nn5)CCCC(=O)N5C[C@H](NC(=O)CCc6cn(CCOC7OC(CO)C(O)C(O)C7NC(C)=O)nn6)C[C@H]5C(=O)N5CCC[C@H]5C(=O)N5CCC[C@H]5C(=O)N5CCC[C@H]5C(=O)N5CCC[C@H]5C(=O)N5CCC[C@H]5C(=O)N5CCC[C@H]5C(=O)N5CCC[C@H]5C(=O)N5CCC[C@H]5C(=O)NCc5cn(nn5)CCCC(=O)N5C[C@H](NC(=O)CCc6cn(CCOC7OC(CO)C(O)C(O)C7NC(C)=O)nn6)C[C@H]5C(=O)N5CCC[C@H]5C(=O)N5CCC[C@H]5C(=O)N5CCC[C@H]5C(=O)N5CCC[C@H]5C(=O)N5CCC[C@H]5C(=O)N5CCC[C@H]5C(=O)N5CCC[C@H]5C(=O)N5CCC[C@H]5C(=O)NCc5cn(nn5)CCCC(=O)N4C3)nn2)OC(CO)C(O)C1O (stereo partly drawn) [SL4] (cyclo(PPPPPPPP[X1][Pro(trans-4-NH2)](X2)PPPPPPPP[X1][Pro(trans-4-NH2)](X2)PPPPPPPP[X1][Pro(trans-4-NH2)](X2))) | 98.1 nM | 

— patent publication US10443026B2, “Polygonal scaffold and manufacturing method thereof, and protein modulator and manufacturing method thereof” (NATIONAL TSING HUA UNIVERSITY, priority 2017, dated 2019)
